Data from patent US6589984B1, “Benzofurylpyrone derivatives” (Teijin Limited, priority 1998, dated 2003).

System: Human hepatic cancer cells HepG2
Assay: TG production inhibiting activity (14C-acetic acid incorporation into TG) in HepG2 cells
Assay type: cell-based
Details: Homo sapiens, HepG2, group criterion
Description: Human hepatic cancer cells HepG2 were inoculated into a 24-well plate (Costar No. 3524) at 4×10^4 cells/well, and 1 ml of medium (eRDF medium containing 10% bovine serum (Kyokuto Chemical Co.)) was used for 6 day culturing with 5% CO2 at 37° C. After drawing off the supernatant medium, the cells were freshly rinsed with 1 ml of PBS(−) buffer solution (Takara Shuzo) and drawn off. This procedure was repeated twice and then 1 ml of fresh medium (eRDF medium) was added.
6-(benzofuran-2-yl)-3,5-dimethyl-4-hydroxy-2H-pyran-2-one (Example 2) was dissolved in dimethylsulfoxide (DMSO) to prepare a 20 mM sample stock solution. A diluted solution was obtained by diluting the sample solution with DMSO.
To the cells prepared above there were added the sample stock solution or its diluted solution at 5 μl per well and 10 μl of ^14C-acetic acid solution (a solution of Amersham Code No. CFA13 diluted 4.4-fold with PBS(−) buffer), and culturing was carried out for one day with 5% CO2 at 37° C.
After the culturing was completed, the culture solution was removed, and 1 ml of extraction solution (a mixture of n-hexane and isopropyl alcohol at 2:1) was added for extraction treatment on the lipid components in the cells. After the treatment, the extract containing the obtained lipid components was air-dried, the residue was redissolved in 20 μl of a mixed solution of n-hexane and ethyl acetate at 9:1, and the solution was spotted on a thin-layer chromatography plate (S319, Tokyo Kasei) and developed by thin-layer chromatography with the mixed solution mentioned above. After air-drying, the lipid components were colored with iodine vapor, the portion corresponding to TG was cut out, and the amount of TG biosynthesized was measured with a liquid scintillation counter.

[1] = alternatives: IC50 less than 10 μM, or at least 30% inhibition at 1 μM, or at least 50% inhibition at 10 μM
[2] = alternatives: IC50 at least 10 μM and less than 100 μM, or at least 5% and less than 30% inhibition at 1 μM, or at least 30% and less than 50% inhibition at 10 μM

SMILES | IC50 [1] [µM] | IC50 [2] [µM]
CC(=O)Oc1c(C)c(-c2cc3ccccc3o2)oc(=O)c1C [Example 1, 4-acetyloxy-6-(benzofuran-2-yl)-3,5-dimethyl-2H-pyran-2-one] | < 10 | 
Cc1c(-c2cc3ccccc3o2)oc(=O)c(C)c1OC(=O)c1ccccc1 [Example 3, 6-(benzofuran-2-yl)-4-benzoyloxy-3,5-dimethyl-2H-pyran-2-one] | < 10 | 
Cc1c(-c2cc3ccccc3o2)oc(=O)c(C)c1OS(C)(=O)=O [Example 4, 6-(benzofuran-2-yl)-3,5-dimethyl-4-methanesulfonyloxy-2H-pyran-2-one] | < 10 | 
Cc1c(-c2cc3cc(C=O)ccc3o2)oc(=O)c(C)c1O [Example 7, 3,5-dimethyl-6-(5-formylbenzofuran-2-yl)-4-hydroxy-2H-pyran-2-one] |  | 10 to 100
CC(=O)Oc1c(C)c(-c2cc3cc(C=O)ccc3o2)oc(=O)c1C [Example 8, 4-acetyloxy-3,5-dimethyl-6-(5-formylbenzofuran-2-yl)-2H-pyran-2-one] |  | 10 to 100
Cc1c(-c2cc3cc(C=C4SC(=O)NC4=O)ccc3o2)oc(=O)c(C)c1O [Example 9, 3,5-dimethyl-6-(5-((3,5-dioxo-2,4-thiazolidinylidene)methyl)benzofuran-2-yl)-4-hydroxy-2H-pyran-2-one] | < 10 | 
CCCCCc1c(-c2cc3ccccc3o2)oc(=O)c(C)c1O [Example 11, 6-(benzofuran-2-yl)-4-hydroxy-3-methyl-5-n-pentyl-2H-pyran-2-one] | < 10 | 
COc1ccc2oc(-c3oc(=O)c(C)c(O)c3C)cc2c1 [Example 12, 3,5-dimethyl-4-hydroxy-6-(5-methoxybenzofuran-2-yl)-2H-pyran-2-one] | < 10 | 
COc1cccc2cc(-c3oc(=O)c(C)c(O)c3C)oc12 [Example 13, 3,5-dimethyl-4-hydroxy-6-(7-methoxybenzofuran-2-yl)-2H-pyran-2-one] | < 10 | 
CC(=O)Oc1c(C)c(-c2cc3ccc(O)cc3o2)oc(=O)c1C [Example 18, 4-acetyloxy-3,5-dimethyl-6-(6-hydroxybenzofuran-2-yl)-2H-pyran-2-one] |  | 10 to 100
CC(=O)Oc1c(C)c(-c2cc3ccc(OS(=O)(=O)C(F)(F)F)cc3o2)oc(=O)c1C [Example 19, 4-acetyloxy-3 ,5-dimethyl-6-(6-(trifluoromethanesulfonyloxy)benzofuran-2-yl)-2H-pyran-2-one] | < 10 | 
COC(=O)c1ccc2cc(-c3oc(=O)c(C)c(O)c3C)oc2c1 [Example 22, 3,5-dimethyl-4-hydroxy-6-(6-(methoxycarbonyl)benzofuran-2-yl)-2H-pyran-2-one] |  | 10 to 100
CC(=O)Oc1c(C)c(-c2cc3ccc(N(C)C)cc3o2)oc(=O)c1C [Example 23, 4-acetyloxy-3,5-dimethyl-6-(6-dimethylaminobenzofuran-2-yl)-2H-pyran-2-one] |  | 10 to 100
CC(=O)Oc1c(C)c(-c2cc3ccc(-c4ccco4)cc3o2)oc(=O)c1C [Example 24, 4-acetyloxy-3,5-dimethyl-6-(6-(2-furyl)benzofuran-2-yl)-2H-pyran-2-one] |  | 10 to 100
CC(=O)Oc1c(C)c(-c2cc3ccc(-c4cccs4)cc3o2)oc(=O)c1C [Example 25, 4-acetyloxy-3,5-dimethyl-6-(6-(2-thienyl)benzofuran-2-yl)-2H-pyran-2-one] | < 10 | 
COc1ccc2cc(-c3oc(=O)c(C)c(O)c3C)oc2c1 [Example 26, 3,5-dimethyl-4-hydroxy-6-(6-methoxybenzofuran-2-yl)-2H-pyran-2-one] | < 10 | 
Cc1c(-c2cc3cc(OCc4cncnc4)ccc3o2)oc(=O)c(C)c1O [Example 27, 3,5-dimethyl-4-hydroxy-6-(5-(5-pyrimidinylmethoxy)benzofuran-2-yl)-2H-pyran-2-one] | < 10 | 
Cc1c(-c2cc3ccccc3o2)oc(=O)c(C)c1OC(=O)c1ccc(CO)cc1 [Example 28, 6-(benzofuran-2-yl)-3,5-dimethyl-4-(4-hydroxymethylbenzoyloxy)-2H-pyran-2-one] | < 10 | 
COc1ccc(C(=O)Oc2c(C)c(-c3cc4ccccc4o3)oc(=O)c2C)cc1 [Example 30, 6-(benzofuran-2-yl)-3,5-dimethyl-4-(4-methoxybenzoyloxy)-2H-pyran-2-one] | < 10 | 
Cc1c(-c2cc3ccccc3o2)oc(=O)c(C)c1OC(=O)Cc1ccccc1 [Example 31, 6-(benzofuran-2-yl)-3,5-dimethyl-4-phenylacetyloxy-2H-pyran-2-one] | < 10 | 

SMILES | IC50 [1] [µM] | IC50 [2] [µM]
Cc1c(O)cc(-c2cc3ccccc3o2)oc1=O [Example 32, 6-(benzofuran-2-yl)-4-hydroxy-3-methyl-2H -pyran-2-one] |  | 10 to 100
CCc1c(-c2cc3ccccc3o2)oc(=O)c(C)c1O [Example 33, 6-(benzofuran-2-yl)-5-ethyl-4-hydroxy-3-methyl-2H-pyran-2-one] | < 10 | 
Cc1c(O)c(C(C)C)c(-c2cc3ccccc3o2)oc1=O [Example 34, 6-(benzofuran-2-yl)-4-hydroxy-5-isopropyl-3-methyl-2H-pyran-2-one] | < 10 | 
Cc1c(O)c(-c2ccccc2)c(-c2cc3ccccc3o2)oc1=O [Example 35, 6-(benzofuran-2-yl)-4-hydroxy-3-methyl-5-phenyl-2H-pyran-2-one] |  | 10 to 100
Cc1c(O)c(Cc2ccccc2)c(-c2cc3ccccc3o2)oc1=O [Example 36, 6-(benzofuran-2-yl)-5-benzyl-4-hydroxy-3-methyl-2H-pyran-2-one] | < 10 | 
COc1c(-c2cc3ccccc3o2)oc(=O)c(C)c1O [Example 37, 6-(benzofuran-2-yl)-4-hydroxy-5-methoxy-3-methyl-2H-pyran-2-one] |  | 10 to 100
Cc1c(-c2cc3ccccc3o2)oc(=O)c(C(C)C)c1O [Example 38, 6-(benzofuran-2-yl)-4-hydroxy-3-isopropyl-5-methyl-2H-pyran-2-one] |  | 10 to 100
Cc1c(-c2cc3ccccc3o2)oc(=O)c(C)c1OC(=O)C(C)C [Example 39, 6-(benzofuran-2-yl)-3,5-dimethyl-4-isobutyryloxy-2H-pyran-2-one] | < 10 | 
Cc1c(-c2cc3ccccc3o2)oc(=O)c(C)c1OC(=O)COc1ccccc1 [Example 42, 6-(benzofuran-2-yl)-3,5-dimethyl-4-phenoxyacetyloxy-2H-pyran-2-one] | < 10 | 
Cc1c(-c2cc3ccccc3o2)oc(=O)c(C)c1OS(=O)(=O)C(F)(F)F [Example 43, 6-(benzofuran-2-yl)-3,5-dimethyl-4-trifluoromethanesulfonyloxy-2H-pyran-2-one] |  | 10 to 100
Cc1c(-c2cc3cc([N+](=O)[O-])ccc3o2)oc(=O)c(C)c1O [Example 45, 3,5-dimethyl-4-hydroxy-6-(5-nitrobenzofuran-2-yl)-2H-pyran-2-one] | < 10 | 
CCNc1ccc2oc(-c3oc(=O)c(C)c(O)c3C)cc2c1 [Example 46, 3,5-dimethyl-6-(5-(ethylamino)benzofuran-2-yl)-4-hydroxy-2H-pyran-2-one] |  | 10 to 100
Cc1c(-c2cc3cc(N(C)C)ccc3o2)oc(=O)c(C)c1O [Example 48, 3,5-dimethyl-6-(5-(dimethylamino)benzofuran-2-yl)-4-hydroxy-2H-pyran-2-one] | < 10 | 
Cc1c(-c2cc3cc(N(Cc4ccccc4)Cc4ccccc4)ccc3o2)oc(=O)c(C)c1O [Example 49, 6-(5-(dibenzylamino)benzofuran-2-yl)-3,5-dimethyl-4-hydroxy-2H-pyran-2-one] | < 10 | 
Cc1c(-c2cc3ccccc3o2)oc(=O)c(C)c1OC(=O)c1ccncc1 [Example 50, 6-(benzofuran-2-yl)-3,5-dimethyl-4-isonicotinoyloxy-2H-pyran-2-one] | < 10 | 
Cc1c(-c2cc3cc(OCc4ccccc4)ccc3o2)oc(=O)c(C)c1OC(=O)CNC(=O)OC(C)(C)C [Example 52, 6-(5-benzyloxybenzofuran-2-yl)-4-(2-(t-butoxycarbonylamino)acetyloxy)-3,5-dimethyl-2H-pyran-2-one] | < 10 | 
CC(=O)Nc1ccc(C(=O)Oc2c(C)c(-c3cc4cc(OCc5ccccc5)ccc4o3)oc(=O)c2C)cc1 [Example 54, 4-(4-(acetylamino)benzoyloxy)-6-(5-benzyloxybenzofuran-2-yl)-3,5-dimethyl-2H-pyran-2-one] | < 10 | 
Cc1c(-c2cc3cc(OCc4ccccc4)ccc3o2)oc(=O)c(C)c1OC(=O)c1cccnc1 [Example 55, 6-(5-benzyloxybenzofuran-2-yl)-3,5-dimethyl-4-nicotinoyloxy-2H-pyran-2-one] | < 10 | 
Cc1c(-c2cc3cc(OCc4ccccc4)ccc3o2)oc(=O)c(C)c1OC(=O)c1ccncc1 [Example 56, 6-(5-benzyloxybenzofuran-2-yl)-3,5-dimethyl-4-isonicotinoyloxy-2H-pyran-2-one] | < 10 | 
CCc1c(-c2cc3cc(OCc4ccccc4)ccc3o2)oc(=O)c(C)c1O [Example 57, 6-(5-benzyloxybenzofuran-2-yl)-5-ethyl-4-hydroxy-3-methyl-2H-pyran-2-one] | < 10 | 
